Values after ≈ are worked out from the molar mass of the structure shown.
Tests used:
[1] = system: anesthetized guinea pig; experiment: In vivo hypotensive activity, arterial blood pressure (ABP) in the guinea pig; conditions: intravenous, artificial ventilation
Method: (§1) B. In Vivo Bronchodilator and Hypotensive Activity.
(§2) The trachea of anesthetized guinea pig was cannulated and the ITP recorded on a polygraph under artificial ventilation. Arterial blood pressure (ABP; reflecting hypotensive activity) was also measured during the experiment. Either intravenous or intraduodenal routes of administration are used. […] The ratio of hypotensive ED20 /bronchodilating ED50 reflects an assessment of the separation of desirable bronchodilator activity from undesirable cardiovascular (hypotensive) effect in the compounds.

[2] = system: trachea of anesthetized guinea pig; experiment: In vivo bronchodilator activity, decrease in intratracheal pressure (ITP) in the guinea pig; conditions: intravenous; for ED50: Cavia porcellus, anesthetized guinea pig, artificial ventilation, read-out: ITP ED50 (dose resulting in a 50% decrease in intratracheal pressure); for Ratio ABP/ITP (hypotensive ED20/bronchodilating ED50): separation of bronchodilator activity from hypotensive effect
Method: as §1, §2

[3] = system: tracheal chains of guinea pig; experiment: In vitro bronchodilator activity, tracheal chains of guinea pig (Magnus method); assay type: cell-based; conditions: Cavia porcellus, relative to maximum response to 0.1 mcg./ml. isoproterenol, read-out: EC50 (concentration which produces a relaxation which is 50% of the maximum response to 0.1 mcg./ml. of isoproterenol)
Method: A. In Vitro Bronchodilator Activity.
Tracheal chains of guinea pig were prepared by the method of A. Akcasu, Arch. Int. Pharmcodyn. […] The response to each test compound was recorded by the Magnus method and expressed as a percentage of the maximum response obtained with 0.1 mcg./ml. of isoproterenol prior to each experiment.

| SMILES | ABP ED20 (dose which reduces arterial blood pressure by 20%) [1] | ED50 [2] | Ratio ABP/ITP (hypotensive ED20/bronchodilating ED50) [2] | EC50 [3] |
| --- | --- | --- | --- | --- |
| CCCSc1nc(N)c2ncn(C3C=CCCC3)c2n1 (stereo not drawn) [Example 1, 9-(2-Cyclohexenyl)-2-n-propylthio-9H-adenine] | > 3 mg/kg | 0.31 mg/kg | > 9.7 | 0.02 µg/mL (≈ 0.0691 µM) |
| Cn1c(=O)c2[nH]cnc2n(C)c1=O [Aminophylline, reference compound] | 1.4 mg/kg | – | – | – |
| CCCSc1nc(N)c2ncn(C3CCCCC3)c2n1 [Example 2, 9-Cyclohexyl-2-n-propylthio-9H-adenine] | > 3 mg/kg | 1.1 mg/kg | > 2.7 | 0.19 µg/mL (≈ 0.652 µM) |

From patent US4269839A, “Alkylthio-adenines used as bronchodilators” (Bristol-Myers Company, priority 1979, dated 1981)
